Laboratory results reported in patent US20120277281A1, “POLYNUCLEOTIDES FOR MEDICAL USE” (MAX-DELBRÜCK-CENTRUM FÜR MOLEKULARE MEDIZIN, priority 2009, published 2012).

How the values were obtained:
Assay type in all cases: cell-based, human
[1] = system: canonical and non-canonical CSF1R transcripts; assay: RT-PCR of canonical and non-canonical CSF1R transcripts in Reh and Namalwa cells; details: single agent
Method: FIG. 7. Analysis of CSF1R LTR DNA methylation and CBFA2T3 expression. Expression of the transcriptional corepressor CBFA2T3 is lost in HRS cells. (A) Activation of the non-canonical CSF1R transcripts following treatment with TSA and/or 5-aza-dC. The non-HRS cell lines Reh and Namalwa were left untreated or treated with 5-aza-dC, TSA, or 5-aza-dC in combination with TSA. The expression of canonical and non-canonical CSF1R transcripts was analyzed by RT-PCR. The analysis of KM-H2 cells and of GAPDH expression were used as controls. (7A) Analysis of canonical and noncanonical CSF1R transcripts following treatment of Reh and Namalwa cells with TSA and/or 5-aza-dC. […] The expression of both canonical (+720 to +1,325) and noncanonical (−5,090 to +148 and −6152 to −143) CSF1R transcripts was analyzed by RT-PCR. […] GAPDH expression was analyzed as a control. […] (B) Various cell lines and primary CD19^+ human tonsilar B cells were analyzed for expression of CBFA2T3 mRNA by RT-PCR (upper panel) and protein by Western blotting (WB; lower panel) expression. […] Expression of GAPDH and β-actin were analyzed as controls. […] GAPDH and beta-actin expression were analyzed as controls. n.s., non-specific. […] Schematic overview of the regions analyzed for DNA methylation (upper panel) and results of bisulfite pyrosequencing in lymphoma/leukemia cell lines and controls (lower panel). […]

[2] = system: KM-H2 cells; assay: [3H]-thymidine incorporation in KM-H2 cells after CSF-1 inhibition; details: 80 μg/ml, pulsed after 24 h
Method: FIG. 3. HRS cells depend on CSF1R activity. (A) L540Cy cells were left untreated (−) or treated with the indicated amounts rhCSF-1 (closed bars) or the respective control (open bars) under serum reduced conditions (1% FCS). After 48 hours, cells were pulsed with 1 μCi [^3H]-thymidine per well for a further 20 hours, and [^3H]-thymidine incorporation was determined cpm, counts per minute. Data are represented as mean±SD. (3A) [^3H]-thymidine incorporation in L540Cy cells left untreated (−) or treated with the indicated amounts of rhCSF-1 (black bars) or water control (open bars) under serum-reduced conditions (1% FCS) determined after 48 h. Data are represented as means±s.d. […] After 24 hours, cells were pulsed with [^3H]-thymidine incorporation and analyzed as described in (A). […] CSF1R tyrosine phosphorylation was analyzed as described in FIG. 1F. […]
DNA synthesis was determined by [^3H]-thymidine incorporation assays using standard protocols. The percentage of viable and apoptotic cells was determined by annexin V-FITC/propidium iodide (PI) double-staining (Bender MedSystems) and subsequent FACS analysis.
We determined DNA synthesis by [^3H]-thymidine incorporation assays using standard protocols. In case of L540Cy cells (FIG. 1d), after 48 hours, cells were pulsed with 1 μCi [^3H]-thymidine per well for a further 20 hours, and [^3H]-thymidine incorporation was determined. […]

[3] = system: CSF1R; assay: rhCSF1-induced CSF1R tyrosine phosphorylation in DEL cells (IP, immunoblot); details: preincubation with CSF1R:Fc
Method: FIG. 9. (A) Analysis of CSF1 mRNA expression by Northern blot in various cell lines, as indicated. Expression of GAPDH was analyzed as a control. Note, that Hodgkin cell lines overexpress two splice variants compared to control cell lines Reh, Namalwa and BL60, which lack CSF1 expression. (B) To test the functionality of the decoy-receptor-like CSF1R:Fc inhibitor, anaplastic large cell lymphoma derived DEL cells, which show an abundant CSF1R expression (Mathas, S. et al., PNAS 106, 5831-5836 (2009)), were left untreated or stimulated with rhCSF1 with or without preincubation with CSF1R:Fc or the respective IgG1:Fc control. Thereafter, IP was performed with a CSF1R-specific antibody or the respective isotype control (IC), and CSF1R tyrosine phosphorylation was detected by immunoblot with antibody to phospho-tyrosine (p-Tyr; upper panel). As a control, the membrane was reprobed with antibody to CSF1R (lower panel). Note, that CSF1R:Fc prevents rhCSF-1 induced CSF1R phosphorylation.

| Molecule | induction of canonical and non-canonical CSF1R transcripts [1] | [3H]-thymidine incorporation [2] | rhCSF-1 induced CSF1R phosphorylation [3] |
| --- | --- | --- | --- |
| Nc1ncn([C@H]2C[C@H](O)[C@@H](CO)O2)c(=O)n1 [Compound 5-aza-dC, 5-aza-2′-deoxycytidine] | weakly induced |  |  |
| CC(/C=C/C(=O)NO)=C\[C@@H](C)C(=O)c1ccc(N(C)C)cc1 [TSA, Trichostatin A] | weakly induced |  |  |
| CSF1R:Fc: decoy-receptor-like inhibitor that binds to and neutralizes CSF-1 (329-MR, R&D Systems) |  | strong reduction | prevents |
